# In patent US20210085743A1, “SARRACENIA-BASED TOPICAL COMPOSITIONS AND METHODS OF USE THEREOF” (Aubio Life Sciences, LLC, priority 2019, published 2021):
# Key:
# herpes = conditions: guinea pig, topical, as infrequently as once weekly; cited from earlier work
# [1] = system: Reconstructed human epithelium (RhE); assay: Cytokine release (ELISA) in SDS-damaged reconstructed human epithelium; type: cell-based; conditions: SDS vs untreated control group
# Experimental: (§1) Reconstructed human epithelium (RhE) was damaged by exposure to SDS 0.15% for 1 h, then 25 μL of the final Sarracenia formulation (Gel B) was applied. Cell viability by the MTT assay (FIG. 1), and cytokine release, specifically, IL-1α, IL-6, IL-8 and G-CSF release measured using ELISA (FIG. 2), were evaluated 24 h later. Each treatment was run in triplicate. A statistically significant (Tukey's multiple comparison test) recovery in cell viability and cytokine release compared to SDS treated inserts was considered as indicator of repair capacity. FIG. 2 (legend): Evaluation of cytokine production. Each value represents the mean±SD, n=3. Statistical analysis was performed with Tukey's multiple comparison test with *p<0.05 vs Control and § vs SDS treated group.
# [2] = system: Reconstructed human epithelium (RhE); assay: MTT cell viability in SDS-damaged reconstructed human epithelium; type: cell-based; conditions: SDS 0.15% for 1 h, MTT 24 h later
# Experimental: as §1, with “capacity.” for “capacity. FIG. 2 (legend): Evaluation of cytokine production. Each value represents the mean±SD, n=3. Statistical analysis was performed with Tukey's multiple comparison test with *p<0.05 vs Control and § vs SDS treated group.”
# Each value represents the mean±SD, n=3. **p<0.01 vs control. The dotted line is set at the level of cytotoxicity obtained following SDS damage.
# FIG. 1 (legend): Sarracenia extract formulation improve cellular viability in a skin irritant model. The results obtained on cell viability (MTT assay) are reported. Each value represents the mean±SD, n=3. Statistical analysis was performed with Tukey's multiple comparison test with **p<0.01 vs Control. The dotted line is set at the level of cytotoxicity obtained following SDS damage.
# [3] = system: cancer cells including melanoma; conditions: various types of cancer cells including melanoma; cited from earlier work
# mycobacteria = conditions: from methanolic extracts of Sarracenia purpurea; cited from earlier work
# THP-1 cells = assay: TLR agonist-induced IL-8 and TNF-α release (ELISA) in THP-1 cells; type: cell-based, human; conditions: control wells, 24 h
# Experimental: Naïve THP-1 cells were exposed for 24 to the TLR3 agonist poly(I:C) (100 μg/ml), to the TLR7/8 agonist imidazoquinoline (1 μg/m1), to the TLR9 agonist Class A CpG oligonucleotide 5 μM, and to LPS from Escherichia coli serotype 0127:B8 10 ng/ml in the presence or absence of three not cytotoxic concentrations of the extract. IL-8 and TNF-α were measured by ELISA as reference cytokines. Three independent experiments will be conducted. A statistically significant difference versus control cells was considered relevant.
# Naïve THP-1 cells were exposed for 24 to poly(I:C) 100 μg/ml, imidazoquinoline (Imid) 1 μg/ml, or LPS 10 ng/ml in the presence or absence of three concentrations of the extract 0.1, 0.5 and 1.0 mg/ml). IL-8 release was measured by ELISA.
# Naïve THP-1 cells were exposed for 24 to poly(I:C) 100 μg/ml, imidazoquinoline (Imid) 1 μg/ml, or LPS 10 ng/ml in the presence or absence of three concentrations of the extract 0.1, 0.5 and 1.0 mg/ml). TNF-α release was measured by ELISA.
compound,measurement,setting,value
"CCOCc1nc2c(N)nc3ccccc3c2n1CC(C)(C)O [Resiquimod, 4-amino-2-ethoxymethyl-α,α-dimethyl-1H-imidazo [4,5-c]quinoline-1-ethanol]",recurrences of herpes after therapy,herpes,reduces recurrences of herpes
CCCCCCCCCCCCOS(=O)(=O)[O-].[Na+] [SDS],IL-1α release,[1],increase
same,IL-8 release,[1],increase
same,cell viability after SDS damage,[2],below 50%
C=C(C)[C@@H]1CC[C@]2(CO)CC[C@]3(C)[C@H](CC[C@@H]4[C@@]5(C)CC[C@H](O)C(C)(C)[C@@H]5CC[C@]43C)[C@@H]12 [betulin],anti-tumor activity,[3],anti-tumor activity
C=C(C)[C@@H]1CC[C@]2(C=O)CC[C@]3(C)[C@H](CC[C@@H]4[C@@]5(C)CC[C@H](O)C(C)(C)[C@@H]5CC[C@]43C)[C@@H]12 [betulinaldehyde],antimycobacterial activity,mycobacteria,responsible for the antimycobacterial activity
c1cnc2c(c1)ccc1nc[nH]c12 [imidazoquinoline],IL-8 release by TLR agonist alone,THP-1 cells,induced
C=C(C)[C@@H]1CC[C@]2(C)CC[C@]3(C)[C@H](CC[C@@H]4[C@@]5(C)CC[C@H](O)C(C)(C)[C@@H]5CC[C@]43C)[C@@H]12 [lupeol],anti-tumor activity,[3],anti-tumor activity
C[C@H]1[C@H](C)CC[C@]2(C(=O)O)CC[C@]3(C)C(=CC[C@@H]4[C@@]5(C)CC[C@H](O)C(C)(C)[C@@H]5CC[C@]43C)[C@H]12 [ursolic acid],antimycobacterial activity,mycobacteria,responsible for the antimycobacterial activity
Poly(I:C),IL-8 release by TLR agonist alone,THP-1 cells,induced
